From patent US9850206B2, “S1P and/or ATX modulating agents” (BIOGEN MA INC., priority 2012, dated 2017)
Like-named read-outs stand apart in the source and are kept apart here.

Experiments:
[1] = biological target: S1P5 (Homo sapiens, UniProt Q9H228); experiment: S1P receptor activity assay (calcium flux, FLIPR TETRA), S1P5; assay type: cell-based
Excerpt: (§1) Agonist percentage activation determinations were obtained by assaying sample compounds and referencing the Emax control for each receptor profiled. Antagonist percentage inhibition determinations were obtained by assaying sample compounds and referencing the control EC80 wells for each receptor profiled. The samples were run using a “Single Addition” assay protocol for the agonist and antagonist assay run. The protocol design was as follows:
(§2) Master stock solution: Unless specified otherwise, all sample compounds were diluted in 100% anhydrous DMSO including all serial dilutions. All control wells contained identical solvent final concentrations as did the sample compound wells.
(§3) Compound plate for assay: The sample compounds were transferred from a master stock solution into a daughter plate that was used in the assay. Each sample compound was diluted into assay buffer (1×HBSS with 20 mM HEPES and 2.5 mM Probenecid) at an appropriate concentration to obtain final concentrations.
(§4) Sample compounds were plated in an eight-point, four-fold dilution series in duplicate with a top concentration of 10 μM. The concentrations described here reflect the final concentration of the compounds during the antagonist assay.
(§5) Reference agonists were handled as mentioned above serving as assay control. The reference agonists were handled as described above for Emax.
(§6) Assay was read for 180 seconds using the […] (This assay run added sample compounds and reference agonist to respective wells). At the completion of the first “Single Addition” assay run, assay plate was removed from the […] and placed at 25° C. for seven (7) minutes.
(§7) Using the EC80 values determined during the agonist assay, stimulated all pre-incubated sample compound and reference antagonist (if applicable) wells with EC80 of reference agonist. Read for 180 seconds using the […] (This assay added reference agonist to respective wells—then fluorescence measurements were collected to calculate percentage inhibition values).
(§8) All plates were subjected to appropriate baseline corrections. Once baseline corrections were processed, maximum fluorescence values were exported and data manipulated to calculate percentage activation, percentage inhibition and Z′.

[2] = biological target: S1P1 (Homo sapiens, UniProt P21453); experiment: S1P receptor activity assay (calcium flux, FLIPR TETRA), S1P1; assay type: cell-based
Chain of S1P1 (P21453 whole entry): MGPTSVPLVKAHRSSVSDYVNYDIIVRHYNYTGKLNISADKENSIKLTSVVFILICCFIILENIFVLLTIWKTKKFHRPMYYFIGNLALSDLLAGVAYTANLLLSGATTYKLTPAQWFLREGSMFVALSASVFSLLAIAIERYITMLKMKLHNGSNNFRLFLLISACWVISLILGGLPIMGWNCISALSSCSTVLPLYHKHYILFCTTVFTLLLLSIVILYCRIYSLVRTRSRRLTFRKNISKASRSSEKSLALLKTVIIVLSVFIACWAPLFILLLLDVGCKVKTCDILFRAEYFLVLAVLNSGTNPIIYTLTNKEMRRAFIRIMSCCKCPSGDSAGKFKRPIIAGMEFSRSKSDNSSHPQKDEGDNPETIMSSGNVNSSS
Excerpt: as §1, §2, §3, §4, §5, §6, §7, §8

[3] = biological target: T1, S1P4 (Homo sapiens, UniProt O95977); experiment: S1P receptor activity assay (calcium flux, FLIPR TETRA), S1P4; assay type: cell-based
T1 sequence (O95977 1-384): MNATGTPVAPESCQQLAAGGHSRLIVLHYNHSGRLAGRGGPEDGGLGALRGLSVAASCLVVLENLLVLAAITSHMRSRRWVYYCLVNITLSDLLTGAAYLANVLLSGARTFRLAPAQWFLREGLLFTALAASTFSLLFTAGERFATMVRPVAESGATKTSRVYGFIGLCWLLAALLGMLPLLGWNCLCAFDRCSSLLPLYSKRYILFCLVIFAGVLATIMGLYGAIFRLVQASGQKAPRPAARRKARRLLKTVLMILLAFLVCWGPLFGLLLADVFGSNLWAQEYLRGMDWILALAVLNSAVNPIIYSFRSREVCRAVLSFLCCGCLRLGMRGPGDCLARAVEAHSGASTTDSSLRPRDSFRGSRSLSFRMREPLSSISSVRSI
Excerpt: as §1, §2, §3, §4, §5, §6, §7, §8

[4] = biological target: T2, Human ATX protein (Homo sapiens, UniProt Q13822); experiment: Autotaxin (ATX) FRET assay with FS-3 substrate; assay type: biochemical
T2 construct: made in house
Excerpt: ATX (Autotaxin) is a 125 KDa glycoprotein with lysophospholipase D (LPLD) activity that generates the bioactive lipid lysophosphatidic acid (LPA) from lysophosphatidylcholine (LPC). The ATX biochemical assay utilizes a FRET (fluorescence resonance energy transfer) technology platform. […] ATX catalyzes the hydrolysis of the substrate which separates the dabsyl quencher from the fluorescein reporter, which becomes fluorescent. The reaction is monitored by a SpectraMax M5 (Molecular Devices, Sunnyvale, Calif.) with at excitation wavelength 485 nm and emission wavelength 535 nm.
Fatty acid free-BSA (Sigma A8806): 10 mg/mL in H2O, stored at 4° C.
2×ATX assay buffer: 100 mM Tris, 280 mM NaCl, 10 mM KCl, 2 mM CaCl2, 2 mM MgCl2, pH 7.4.
Human ATX protein: expressed and purified in house. Stored at −80° C.
Substrate FS-3 (Echelon, L-2000): 100 μg in 77.74 μL H2O (1 mM stock), stored at −20° C.
Compound dilution—All compounds were provided at 10 mM in 100% DMSO. In the first well, 2 μL of 10 mM compound was added to 78 μL of DMSO (1:40 dilution). In subsequent wells 3-fold dilution (total 10 dilutions) were performed.
1×ATX assay buffer was made up with a final concentration of 1 mg/mL fatty acid free-BSA using 2×ATX assay buffer, 10 mg/ml fatty acid free-BSA and ddH2O.
38 μL was added per well to the assay plate. The final concentration of ATX in the reaction as 1.0 μg/mL.
2 μL per well of compounds was transferred to provide the desired concentration. The plate was centrifuged, then incubated at room temperature for 30 minutes on the shaker.
FS-3 was diluted with 1×ATX assay buffer to a concentration of FS-3 of 10 μM (5×). Then, 10 μL was added per well to the assay plate. The final concentration of FS-3 in the reaction was 2 μM. The plate was centrifuged. The plate was kept shaking at room temperature for 2 hours. Because FS-3 substrate is light sensitive, plates were kept covered and protected from light.

[5] = calcium flux, top concentration 10 μM, read-out: IC50 for S1P5
[6] = FS-3 2 μM, ATX 1.0 μg/mL, 2 hours at room temperature, read-out: IC50 (ATX)
[7] = calcium flux, top concentration 10 μM, the >5 μM sentence says only 'for S1P1', read-out: IC50 for S1P1 agonist activity
[8] = calcium flux, top concentration 10 μM, the >5 μM sentence says only 'for S1P4', read-out: IC50 for S1P4 agonist activity

Chain of S1P5 (Q9H228 whole entry): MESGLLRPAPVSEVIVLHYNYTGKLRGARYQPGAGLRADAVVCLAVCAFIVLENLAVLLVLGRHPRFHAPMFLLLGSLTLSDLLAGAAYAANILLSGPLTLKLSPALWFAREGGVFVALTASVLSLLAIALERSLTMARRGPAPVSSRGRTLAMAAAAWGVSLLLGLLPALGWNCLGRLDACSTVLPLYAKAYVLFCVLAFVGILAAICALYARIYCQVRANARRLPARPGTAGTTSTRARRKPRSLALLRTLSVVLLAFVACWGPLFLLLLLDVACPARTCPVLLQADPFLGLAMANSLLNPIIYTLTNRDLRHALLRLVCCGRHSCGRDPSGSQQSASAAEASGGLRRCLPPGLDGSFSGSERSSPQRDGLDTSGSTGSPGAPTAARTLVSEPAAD

Structure (SMILES) | IC50 [1, 5] | IC50 [4, 6] | IC50 [2, 7] | IC50 [3, 8] | IC50 [2] | IC50 [3] | IC50 [1] | IC50 [4]
CC[C@H]1CC[C@H](Oc2ccc(C3=CCN(CCC(=O)O)CC3)cc2)CC1 [Example 27, 3-(4-(4-((trans-4-Ethylcyclohexyl)oxy)phenyl)-5,6-dihydropyridin-1(2H)-yl)propanoic acid] | > 5 µM | 5 to 10 µM | – | – | > 5 µM | > 5 µM | – | –
O=C(O)CCCN1CC=C(c2ccc(OC3CCC4(CCCC4)CC3)cc2)CC1 [Example 41, 4-(4-(4-(Spiro[4.5]decan-8-yloxy)phenyl)-5,6-dihydropyridin-1(2H)-yl)butanoic acid] | 2 to 5 µM | ≤ 5 µM | > 5 µM | 2 to 5 µM | – | – | – | –
O=C(O)CCN1CC=C(c2ccc(OC3CCC4(CCCC4)CC3)cc2)CC1 [Example 39, 3-(4-(4-(Spiro[4.5]decan-8-yloxy)phenyl)-5,6-dihydropyridin-1(2H)-yl)propanoic acid] | – | – | – | – | > 5 µM | 2 to 5 µM | > 5 µM | > 10 µM
CCCCCCCCOc1ccc(N2CCN(CCCC(=O)O)CC2)cc1 [Example 15, 4-(4-(4-(Octyloxy)phenyl)piperazin-1-yl)butanoic acid] | – | – | – | – | > 5 µM | ≤ 2 µM | > 5 µM | > 10 µM
O=C(O)CCCCN1CCC(c2ccc(OC3CCC4(CCCC4)CC3)cc2)CC1 [Example 44, 5-(4-(4-(Spiro[4.5]decan-8-yloxy)phenyl)piperidin-1-yl)pentanoic acid] | ≤ 2 µM | > 10 µM | > 5 µM | ≤ 2 µM | – | – | – | –
CC[C@H]1CC[C@@H](Oc2ccc(C3=CCN(CCCC(=O)O)CC3)cc2)CC1 [Example 35, 4-(4-(4-((cis-4-Ethylcyclohexyl)oxy)phenyl)-5,6-dihydropyridin-1(2H)-yl)butanoic acid] | > 5 µM | > 10 µM | – | – | > 5 µM | ≤ 2 µM | – | –
CC[C@H]1CC[C@@H](Oc2ccc(C3=CCN(CCC(=O)O)CC3)cc2)CC1 [Example 33, 3-(4-(4-((cis-4-Ethylcyclohexyl)oxy)phenyl)-5,6-dihydropyridin-1(2H)-yl)propanoic acid] | – | – | – | – | > 5 µM | ≤ 2 µM | > 5 µM | > 10 µM
CC[C@H]1CC[C@@H](Oc2ccc(C3=CCN(CCCCC(=O)O)CC3)cc2)CC1 [Example 37, 5-(4-(4-((cis-4-Ethylcyclohexyl)oxy)phenyl)-5,6-dihydropyridin-1(2H)-yl)pentanoic acid] | 2 to 5 µM | ≤ 5 µM | – | – | ≤ 2 µM | ≤ 2 µM | – | –
CC(C)(C)[C@H]1CC[C@H](Oc2ccc(C3=CCN(CCC(=O)O)CC3)cc2)CC1 [Example 45, 3-(4-(4-((trans-4-(tert-Butyl)cyclohexyl)oxy)phenyl)-5,6-dihydropyridin-1(2H)-yl)propanoic acid] | > 5 µM | 5 to 10 µM | – | – | 2 to 5 µM | ≤ 2 µM | – | –
O=C(O)CCN1CCC(c2ccc(OC3CCC4(CCCC4)CC3)cc2)CC1 [Example 40, 3-(4-(4-(Spiro[4.5]decan-8-yloxy)phenyl)piperidin-1-yl)propanoic acid] | ≤ 2 µM | ≤ 5 µM | 2 to 5 µM | ≤ 2 µM | – | – | – | –

More lines, main results first:

IC50 [1, 5] | IC50 [4, 6] | IC50 [2, 7] | IC50 [3, 8] | Structure (SMILES) | IC50 [2] | IC50 [3] | IC50 [1] | IC50 [4]
> 5 µM | > 10 µM | 2 to 5 µM | ≤ 2 µM | CC[C@H]1CC[C@@H](Oc2ccc(C3CCN(CCCCC(=O)O)CC3)cc2)CC1 [Example 38, 5-(4-(4-((cis-4-Ethylcyclohexyl)oxy)phenyl)piperidin-1-yl)pentanoic acid] | – | – | – | –
> 5 µM | 5 to 10 µM | > 5 µM | 2 to 5 µM | CC[C@H]1CC[C@@H](Oc2ccc(C3CCN(CCCC(=O)O)CC3)cc2)CC1 [Example 36, 4-(4-(4-((cis-4-Ethylcyclohexyl)oxy)phenyl)piperidin-1-yl)butanoic acid] | – | – | – | –
> 5 µM | 5 to 10 µM | ≤ 2 µM | ≤ 2 µM | CC(C)(C)[C@H]1CC[C@H](Oc2ccc(C3CCN(CCC(=O)O)CC3)cc2)CC1 [Example 46, 3-(4-(4-((trans-4-(tert-Butyl)cyclohexyl)oxy)phenyl)piperidin-1-yl)propanoic acid] | – | – | – | –
> 5 µM | > 10 µM | > 5 µM | > 5 µM | CC(C)(C)[C@H]1CC[C@H](Oc2ccc(C3CCCC(N4CCC(C(=O)O)CC4)C3)cc2)CC1 (stereo partly drawn) [Example 10, 1-(3-(4-(trans-4-tert-butylcyclohexyloxy)phenyl)cyclohexyl)piperidine-4-carboxylic acid] | – | – | – | –
> 5 µM | ≤ 5 µM | > 5 µM | > 5 µM | CC[C@H]1CC[C@H](Oc2ccc(C3CCN(CCCCC(=O)O)CC3)cc2)CC1 [Example 32, 5-(4-(4-((trans-4-Ethylcyclohexyl)oxy)phenyl)piperidin-1-yl)pentanoic acid] | – | – | – | –
> 5 µM | 5 to 10 µM | > 5 µM | > 5 µM | CC(C)(C)[C@H]1CC[C@@H](Oc2ccc(C3CCCN(CCCC(=O)O)C3)cc2)CC1 (stereo in doubt) [Example 4, 4-(3-(4-(cis-4-tert-Butylcyclohexyloxy)phenyl)piperidin-1-yl)butanoic acid] | – | – | – | –
> 5 µM | > 10 µM | > 5 µM | 2 to 5 µM | CC(C)(C)[C@H]1CC[C@H](Oc2ccc(N3CCN(CCC(=O)O)CC3)cc2)CC1 [Example 17, 3-(4-(4-((trans-4-(tert-Butyl)cyclohexyl)oxy)phenyl)piperazin-1-yl)propanoic acid] | – | – | – | –
> 5 µM | > 10 µM | > 5 µM | 2 to 5 µM | CC(C)(C)[C@H]1CC[C@H](Oc2ccc(N3CCN(CCCC(=O)O)CC3)cc2)CC1 [Example 18, 4-(4-(4-((trans-4-(tert-Butyl)cyclohexyl)oxy)phenyl)piperazin-1-yl)butanoic acid] | – | – | – | –
> 5 µM | > 10 µM | > 5 µM | ≤ 2 µM | CC[C@H]1CC[C@H](Oc2ccc(C3CCN(CCCC(=O)O)CC3)cc2)CC1 [Example 30, 4-(4-(4-((trans-4-Ethylcyclohexyl)oxy)phenyl)piperidin-1-yl)butanoic acid] | – | – | – | –
≤ 2 µM | ≤ 5 µM | ≤ 2 µM | ≤ 2 µM | CC(C)(C)[C@H]1CC[C@H](Oc2ccc(C3CCN(CCCC(=O)O)CC3)cc2)CC1 [Example 48, 4-(4-(4-((trans-4-(tert-Butyl)cyclohexyl)oxy)phenyl)piperidin-1-yl)butanoic acid] | – | – | – | –
